From article PMC9578445, “Association of respiratory failure with inhibition of NaV1.6 in the phrenic nerve” (Channels, 2022)
Where two headings read alike, the source gives them in different places.

Legend:
Pgp = Pgp (Homo sapiens, UniProt P08183); experiment: Permeability BA/AB ratio (Pgp transport); type: in vitro ADME; details: not told
[1] = Plasma exposure in rat CV/R assay; type: in vivo; details: for concentration at 15 min / concentration at 30 min: CD, plasma, iv; for concentration at 15 min / concentration at 30 min / Total [plasma] / Unbound [plasma]: rat, IV infusion; for unbound plasma concentration just prior to death: blood samples taken just prior to death; for Total [plasma] / Unbound [plasma]: just prior to death
Excerpt: For in vivo CVR and phrenic nerve activity studies, all raw signals were amplified via general purposed biological amplifier (filter settings DC – 3-5 KhZ) then digitized, calibrated and collected at a minimum of 500 Hz (1000 Hz for ECG and 2000 Hz for cardiac electrograms, and 10 KHz for phrenic nerve activity) using Notocord-HEM data acquisition and analysis software. The raw signal was filtered following acquisition with a bandpass filter set to 200–800 Hz). Vehicle (100% dimethylformamdide, DMF) or compound formulated in the vehicle was administered as a 30-minute IV infusion at 0.0167 μL/g body weight/min. […] Exposure in rats was determined in separate pharmacokinetics experiments where compounds were administered via IV dosing.

[2] = tested on: anesthetized male CD rats; experiment: Rat Cardiovascular/Respiratory (CV/R) assay; type: in vivo; design: ∆ QRS Interval: unit not given here; details: for ∆ Heart Rate / ∆ Mean Arterial Pressure / ∆ QRS Interval / ∆ respiratory rate: rat
Protocol: Male CD Rats were anesthetized with ketamine:xylazine (85 mg/kg:5 mg/kg, im, to effect). The left femoral artery and vein were cannulated for the measurement of blood pressure and the administration of test agent, respectively. The right femoral vein was cannulated for maintenance anesthetic infusion (ketamine:xylazine ~35 mg/kg/hr:1.5 mg/kg/hr, iv, to effect). Needle electrodes were placed subcutaneously at the right axillary and left inguinal areas to record lead II ECGs. When ECG intervals were required to determine effect on cardiac conduction a pacing/recording electrode catheter was advanced through the right jugular vein to pace the heart. ECG intervals were then measured at a fixed cardiac rate of 400 beats/minute to remove any variability of intrinsic heart rate on these parameters.
To determine the test agent-dependent effect on respiratory rate, a tracheotomy was also performed using a short length of polyethylene tubing containing a thermistor (AD Instruments). The change in temperature detected by the thermistor was used to calculate respiratory rate.
For in vivo CVR and phrenic nerve activity studies, all raw signals were amplified via general purposed biological amplifier (filter settings DC – 3-5 KhZ) then digitized, calibrated and collected at a minimum of 500 Hz (1000 Hz for ECG and 2000 Hz for cardiac electrograms, and 10 KHz for phrenic nerve activity) using Notocord-HEM data acquisition and analysis software. The raw signal was filtered following acquisition with a bandpass filter set to 200–800 Hz). Vehicle (100% dimethylformamdide, DMF) or compound formulated in the vehicle was administered as a 30-minute IV infusion at 0.0167 μL/g body weight/min. Doses were selected to achieve unbound plasma concentrations in range of measured Nav1.6 IC50 values when infused at 0.0167uL/g body weight/min based on measured rat clearance, plasma protein binding and Nav1.6 IC50. Exposure in rats was determined in separate pharmacokinetics experiments where compounds were administered via IV dosing.

[3] = tested on: rat diaphragm with the phrenic nerve attached; experiment: Rat hemisected diaphragm (HMD) assay, ex vivo; details: for IC50: relative to 3 μM d-Tubocurarine relaxation = 100%; for inhibition in rat HMD assay: at both 10 and 30 μM
Excerpt: Wistar derived male or female rats weighing 450 ± 50 g were euthanized by CO2 overexposure. The diaphragm with the phrenic nerve attached was removed and placed into a tissue recording chamber containing Krebs solution pH 7.4; (composition in g/L: NaCl 6.89, KCl 0.35, CaCl2 0.277, KH2PO4 0.163, MgSO4 · 7H2O 0.296, NaHCO3 2.1 and glucose 1.8). A piece of cotton was attached to the top of the phrenic nerve over the jaw electrodes. A second piece of cotton was attached to the tip of the tendinous tissue at the apex of the diaphragm preparation for attachment to an isometric transducer under 1 g tension. The rib of the diaphragm preparation was secured to the bottom of the jaw electrodes. […] The recording chamber was placed into a water bath kept at a temperature of 32°C by means of a suitable thermoregulator consisting of a thermostat and heating elements in addition to a water circulator.
The isometric transducer was connected to an amplifier and the tissue response was recorded on a two-pen recorder set at 1 volt. Field stimulation [S48 Stimulator (GRASS) set at 0.2 Hz (12 pulses per minute), 0.5 ms pulse duration at 70% of maximum voltage (about 3 to 5 volts)] delivered to two circle platinum electrodes (0.2 cm in diameter) was applied for transmural tissue stimulation. Each tissue preparation was washed three times in Krebs solution every 15 minutes for a 60 minute equilibration period and permitted to develop contractions. D-Tubocurarine (300 µM dissolved in 0.1 mL distilled water for a final 3 µM bath concentration) was added to establish an isometrically recorded control relaxation response ranging from one to two centimeters and corresponding to 60–70% of maximal relaxation. […] The tissue was then washed periodically until the contraction returns to the baseline value.
Sixty minutes later, the test compound was added (e.g. 30 mM in 0.01 mL vehicle of 100% DMSO, for final concentration of 30 µM test compound and 0.1% DMSO). A test compound recorded relaxation response of 50% or more (≥50%) within 5 minutes, relative to the 3 µM d-Tubocurarine control response, indicates neuromuscular blocking activity.

[4] = 14 mg/kg, 14 mg/kg, read-out: Total [plasma]
[5] = 14 mg/kg, 14 mg/kg, read-out: Unbound [plasma]
[6] = male, 7 mg/kg, 7 mg/kg, read-out: Total [plasma]
[7] = male, 7 mg/kg, 7 mg/kg, read-out: Unbound [plasma]
[8] = male, 30 mg/kg, 30 mg/kg, read-out: Total [plasma]
[9] = male, 30 mg/kg, 30 mg/kg, read-out: Unbound [plasma]
[10] = rat CV/R assay, IV infusion, doses tested
[11] = 10 mg/kg, 10 mg/kg, read-out: Total [plasma]
[12] = 10 mg/kg, 10 mg/kg, read-out: Unbound [plasma]
[13] = 1 mg/kg, 1 mg/kg, read-out: Total [plasma]
[14] = 1 mg/kg, 1 mg/kg, read-out: Unbound [plasma]

Sequence of Pgp (P08183 whole entry, the tested form may be a part): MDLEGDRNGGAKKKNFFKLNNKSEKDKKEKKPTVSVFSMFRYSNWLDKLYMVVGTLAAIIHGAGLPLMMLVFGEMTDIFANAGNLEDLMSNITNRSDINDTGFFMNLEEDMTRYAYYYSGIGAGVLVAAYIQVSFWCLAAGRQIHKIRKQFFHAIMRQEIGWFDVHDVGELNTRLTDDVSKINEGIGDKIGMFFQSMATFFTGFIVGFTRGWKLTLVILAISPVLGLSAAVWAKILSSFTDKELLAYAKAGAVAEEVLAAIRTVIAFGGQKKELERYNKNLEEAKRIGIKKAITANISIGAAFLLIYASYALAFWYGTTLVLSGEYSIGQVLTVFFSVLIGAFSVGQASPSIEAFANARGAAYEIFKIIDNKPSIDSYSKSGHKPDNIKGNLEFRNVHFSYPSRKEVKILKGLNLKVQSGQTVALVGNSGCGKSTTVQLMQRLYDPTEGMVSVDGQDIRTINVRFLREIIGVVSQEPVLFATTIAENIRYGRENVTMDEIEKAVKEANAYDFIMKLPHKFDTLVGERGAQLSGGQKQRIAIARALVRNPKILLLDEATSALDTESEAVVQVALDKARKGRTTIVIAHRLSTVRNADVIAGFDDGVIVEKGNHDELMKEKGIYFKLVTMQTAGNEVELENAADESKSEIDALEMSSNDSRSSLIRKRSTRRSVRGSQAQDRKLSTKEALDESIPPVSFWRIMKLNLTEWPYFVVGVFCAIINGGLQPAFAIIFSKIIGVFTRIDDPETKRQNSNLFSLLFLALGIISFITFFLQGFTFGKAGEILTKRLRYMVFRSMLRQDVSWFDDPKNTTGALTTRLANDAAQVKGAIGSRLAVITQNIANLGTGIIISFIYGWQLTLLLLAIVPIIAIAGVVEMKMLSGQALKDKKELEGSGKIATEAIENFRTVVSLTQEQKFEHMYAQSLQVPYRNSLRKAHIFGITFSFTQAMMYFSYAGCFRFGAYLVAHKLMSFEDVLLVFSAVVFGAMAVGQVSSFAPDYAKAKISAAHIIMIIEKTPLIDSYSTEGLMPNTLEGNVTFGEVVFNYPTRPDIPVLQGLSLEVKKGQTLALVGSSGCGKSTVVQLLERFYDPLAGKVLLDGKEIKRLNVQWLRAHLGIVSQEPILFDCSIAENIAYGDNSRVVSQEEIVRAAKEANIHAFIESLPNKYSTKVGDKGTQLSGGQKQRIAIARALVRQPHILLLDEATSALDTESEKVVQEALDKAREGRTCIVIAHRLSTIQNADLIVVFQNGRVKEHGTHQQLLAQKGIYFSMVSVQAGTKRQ

Question: What does the source list for `O=S(=O)(Nc1nccs1)c1cc(Cl)c(NCCCCNC[C@H]2CCCN2)cc1F` [SSCI-1]?
Answer: efflux ratio (Pgp): ~1.1; concentration at 15 min [1, 4]: 88.3 ± 5.6 µM; concentration at 15 min [1, 5]: 5.9 ± 0.4 µM; concentration at 30 min [1, 4]: 104 ± 5.2 µM; concentration at 30 min [1, 5]: 7 ± 0.3 µM; concentration at 15 min [1, 6]: 54.4 ± 3.2 µM; concentration at 15 min [1, 7]: 3.6 ± 0.2 µM; concentration at 30 min [1, 6]: 76.7 ± 4.1 µM; concentration at 30 min [1, 7]: 5.1 ± 0.3 µM; concentration at 15 min [1, 8]: 230 ± 12 µM; concentration at 15 min [1, 9]: 15.4 ± 0.8 µM; concentration at 30 min [1, 8]: 252 ± 4 µM; concentration at 30 min [1, 9]: 16.9 ± 0.3 µM; unbound plasma exposure ([1]; rat CV/R assay, no mortality): 16.9 µM; mortality [2, 10]: No mortality; effects on cardiovascular and respiratory parameters ([2]; rat CV/R assay, at unbound plasma exposure 16.9 μM): minimal effects; ∆ Heart Rate ([2]; IV infusion, 7 mg/kg, 15 min): 0.5 ± 2.2 bpm; ∆ Mean Arterial Pressure ([2]; IV infusion, 7 mg/kg, 15 min): 4.1 ± 0.3 mmHg; ∆ QRS Interval ([2]; IV infusion, 7 mg/kg, 15 min): 1.4 ± 0.6; ∆ respiratory rate ([2]; IV infusion, 7 mg/kg, 15 min): 0.8 ± 1.8%; ∆ Heart Rate ([2]; IV infusion, 7 mg/kg, 30 min): −1.8 ± 3.7 bpm; ∆ Mean Arterial Pressure ([2]; IV infusion, 7 mg/kg, 30 min): 2.7 ± 0.5 mmHg; ∆ QRS Interval ([2]; IV infusion, 7 mg/kg, 30 min): 2.5 ± 1.1; ∆ respiratory rate ([2]; IV infusion, 7 mg/kg, 30 min): 4.5 ± 1.7%; ∆ Heart Rate ([2]; IV infusion, 14 mg/kg, 15 min): −1.4 ± 1.5 bpm; ∆ Mean Arterial Pressure ([2]; IV infusion, 14 mg/kg, 15 min): 2.2 ± 1.1 mmHg; ∆ QRS Interval ([2]; IV infusion, 14 mg/kg, 15 min): 0.4 ± 0.6; ∆ respiratory rate ([2]; IV infusion, 14 mg/kg, 15 min): 1.9 ± 1.6%; ∆ Heart Rate ([2]; IV infusion, 14 mg/kg, 30 min): −0.5 ± 2.9 bpm; ∆ Mean Arterial Pressure ([2]; IV infusion, 14 mg/kg, 30 min): 2.3 ± 2.5 mmHg; ∆ QRS Interval ([2]; IV infusion, 14 mg/kg, 30 min): 0.4 ± 0.7; ∆ respiratory rate ([2]; IV infusion, 14 mg/kg, 30 min): 4.0 ± 1.0%; ∆ Heart Rate ([2]; IV infusion, 30 mg/kg, 15 min): −0.4 ± 1.2 bpm; ∆ Mean Arterial Pressure ([2]; IV infusion, 30 mg/kg, 15 min): 10.5 ± 1.5 mmHg; ∆ QRS Interval ([2]; IV infusion, 30 mg/kg, 15 min): 3.7 ± 0.9; ∆ respiratory rate ([2]; IV infusion, 30 mg/kg, 15 min): −10.1 ± 0.9%; ∆ Heart Rate ([2]; IV infusion, 30 mg/kg, 30 min): 2.1 ± 1.4 bpm; ∆ Mean Arterial Pressure ([2]; IV infusion, 30 mg/kg, 30 min): 4.6 ± 1.9 mmHg; ∆ QRS Interval ([2]; IV infusion, 30 mg/kg, 30 min): 3.9 ± 0.8; ∆ respiratory rate ([2]; IV infusion, 30 mg/kg, 30 min): −24.8 ± 3.3%; inhibition of diaphragm contraction / respiratory effect in HMD assay [3]: does not exhibit respiratory effect; inhibition at 30 µM ([3]; Rattus norvegicus, highest concentration tested of 30 μM): < 50%; IC50 ([3]; Rattus norvegicus): > 30000 nM; inhibition in rat HMD assay [3]: little effect

Question: What does the source list for `C[C@H](c1cccc2c1CNCC2)n1c(=O)oc2cc(S(=O)(=O)Nc3ncns3)ccc21` [SSCI-3]?
Answer: efflux ratio (Pgp): ~1.03; concentration at 15 min [1, 11]: 32.1 ± 2 µM; concentration at 15 min [1, 12]: 3.8 ± 0.2 µM; concentration at 30 min [1, 11]: 43.5 ± 1.8 µM; concentration at 30 min [1, 12]: 5.1 ± 0.2 µM; concentration at 15 min [1, 8]: 108 ± 4.1 µM; concentration at 15 min [1, 9]: 12.7 ± 0.5 µM; unbound plasma concentration just prior to death ([1]; rat CV/R assay): 20.2 µM; Total [plasma] ([1]; 30 mg/kg, 20–21 min): 171.2 ± 10.2a μM; Unbound [plasma] ([1]; 30 mg/kg, 20–21 min): 20.2 ± 1.2a μM; mortality ([2]; rat CV/R assay, IV, 10 mg/kg): No mortality; time of mortality ([2]; rat CV/R assay, IV, 30 mg/kg): 20 to 21 min; ∆ Heart Rate ([2]; IV infusion, 10 mg/kg, 15 min): 3.0 ± 0.7 bpm; ∆ Mean Arterial Pressure ([2]; IV infusion, 10 mg/kg, 15 min): 12.9 ± 2.1 mmHg; ∆ respiratory rate ([2]; IV infusion, 10 mg/kg, 15 min): −8.5 ± 1.8%; ∆ Heart Rate ([2]; IV infusion, 10 mg/kg, 30 min): 5.0 ± 1.9 bpm; ∆ Mean Arterial Pressure ([2]; IV infusion, 10 mg/kg, 30 min): 6.8 ± 8.7 mmHg; ∆ QRS Interval ([2]; IV infusion, 10 mg/kg, 30 min): 0.5 ± 0.2; ∆ respiratory rate ([2]; IV infusion, 10 mg/kg, 30 min): −3.2 ± 1.8%; ∆ respiratory rate ([2]; IV infusion, 30 mg/kg, 20–21 min): −100%; ∆ Heart Rate ([2]; IV infusion, 30 mg/kg, 15 min): 5.6 ± 1.7 bpm; ∆ Mean Arterial Pressure ([2]; IV infusion, 30 mg/kg, 15 min): 13.8 ± 0.7 mmHg; ∆ QRS Interval ([2]; IV infusion, 30 mg/kg, 15 min): 0.3 + 0.4; ∆ respiratory rate ([2]; IV infusion, 30 mg/kg, 15 min): −6.2 ± 5.4%; IC50 ([3]; Rattus norvegicus): 2700 nM

Question: Which results are given for `COc1ccc(CCC(c2cccc3c2CNCC3)n2c(=O)oc3cc(S(=O)(=O)Nc4ncns4)c(F)cc32)cc1` (stereo not shown) [SSCI-6]?
Answer: concentration at 15 min [1, 13]: 1.4 ± 0.2 µM; concentration at 15 min [1, 14]: 0.025 ± 0.004 µM; concentration at 30 min [1, 13]: 1.5 µM; concentration at 30 min [1, 14]: 0.027 µM; unbound plasma concentration just prior to death ([1]; rat CV/R assay): 0.05 µM; Total [plasma] ([1]; 1 mg/kg, 20–23 min): 2.8a μM; Unbound [plasma] ([1]; 1 mg/kg, 20–23 min): 0.050a μM; mortality [2, 10]: mortality; ∆ respiratory rate ([2]; IV infusion, 1 mg/kg, 20–23 min): −100%; ∆ Heart Rate ([2]; IV infusion, 1 mg/kg, 15 min): −0.1 ± 0.4 bpm; ∆ Mean Arterial Pressure ([2]; IV infusion, 1 mg/kg, 15 min): 8.2 ± 7.9 mmHg; ∆ QRS Interval ([2]; IV infusion, 1 mg/kg, 15 min): 1.0 ± 0.8; ∆ respiratory rate ([2]; IV infusion, 1 mg/kg, 15 min): −18.3 ± 9.3%; ∆ Heart Rate ([2]; IV infusion, 1 mg/kg, 30 min): 1.7 bpm; ∆ Mean Arterial Pressure ([2]; IV infusion, 1 mg/kg, 30 min): 7.5 mmHg; ∆ QRS Interval ([2]; IV infusion, 1 mg/kg, 30 min): 1.7; ∆ respiratory rate ([2]; IV infusion, 1 mg/kg, 30 min): −7.8%; Ex vivo HMD inhibition ([3]; at 10 (μM), relative to 3 μM d-Tubocurarine = 100%): 130% at 10; inhibition in rat HMD assay [3]: supramaximal inhibition
